Measured values as given in patent US20240218022A1, “ANTI-VISTA MACROCYCLIC PEPTIDES AND COMPOSITIONS” (BRISTOL-MYERS SQUIBB COMPANY, priority 2022, published 2024).
Starred links: 1 amine or outer side, 2 acyl side, 3 side chain; linkers in the order of their positions; H or OH if unused. Positions of bridges follow the written chain, without caps; N, C: chain ends. Non-standard residues stand in square brackets, D forms with d. Residues, ends and D or L forms follow the SMILES beside them. Phe(4-CONH2) = NC(=O)c1ccc(C[C@H](N)C(=O)O)cc1; Phe(4-COOH) = N[C@@H](Cc1ccc(C(=O)O)cc1)C(=O)O; γGlu = O=C(O)[C@H](CCC(=O)[*:2])N[*:1]; Val(3-OH) = CC(C)(O)[C@H](N)C(=O)O; 4Pal = N[C@@H](Cc1ccncc1)C(=O)O; NMeE = CN[C@@H](CCC(=O)O)C(=O)O; Ahp(2) = CCCCC[C@H](N)C(=O)O; NMeNle = CCCC[C@H](NC)C(=O)O; Tle = CC(C)(C)[C@H](N)C(=O)O; NHexGly = CCCCCCNCC(=O)O; NMeA = CN[C@@H](C)C(=O)O; Nle = CCCC[C@H](N)C(=O)O; Aun = NCCCCCCCCCCC(=O)O; Nva = CCC[C@H](N)C(=O)O; AEEA = NCCOCCOCC(=O)O

target: T1, mouse VISTA (mVISTA) (Mus musculus, UniProt Q9D659); experiment: Cell-Based Binding High-Content Assay For mVISTA (HC CBA mVISTA); details: read-out: HC CBA mVISTA IC50
T1 construct: expressed in transfected cells; host or cells: Human embryonic kidney 293T cells
T1 sequence (Q9D659 33-308): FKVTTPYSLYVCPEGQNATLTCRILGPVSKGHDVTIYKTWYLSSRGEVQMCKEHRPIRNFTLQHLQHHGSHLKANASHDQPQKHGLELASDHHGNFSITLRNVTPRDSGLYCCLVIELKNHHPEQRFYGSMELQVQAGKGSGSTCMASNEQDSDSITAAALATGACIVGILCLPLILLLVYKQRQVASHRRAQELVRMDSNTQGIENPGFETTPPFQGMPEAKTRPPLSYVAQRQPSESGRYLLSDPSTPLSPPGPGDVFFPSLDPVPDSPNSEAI
Method in brief: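 293T cells expressing mouse VISTA, with compounds added either after seeding ("no wash") or before seeding and then washed out after 1 h. Biotinylated peptide 2 nM for 30 min at room temperature, then detection with Alexa 647–streptavidin. After fixation with Hoechst stain, plates were high-content imaged; IC50 from four-parameter logistic fit.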

Row | IC50 [µM] | SMILES
1 | 0.0296 | CCCCCCN1CC(=O)N[C@@H](Cc2ccc(O)cc2)C(=O)N[C@@H](CCCC)C(=O)N[C@@H](CC(N)=O)C(=O)N[C@@H](CCCNC(=N)N)C(=O)N(C)[C@@H](C)C(=O)N[C@@H](CCCCC)C(=O)N2CCC[C@H]2C(=O)N[C@@H](C(C)(C)C)C(=O)N[C@@H](CO)C(=O)N[C@H](C(=O)NCCOCCOCC(=O)N[C@@H](CCC(=O)NCCOCCOCC(=O)NCCCCCCCCCCC(=O)O)C(=O)O)CSCC(=O)N[C@@H](Cc2ccccc2)C(=O)N[C@@H](Cc2c[nH]c3ccccc23)C(=O)N[C@@H](CC(=O)O)C1=O [compound 2247] ({CH2CO}-FWD[NHexGly]Y[Nle]NR[NMeA][Ahp(2)]P[Tle]SC[AEEA][γGlu][AEEA][Aun]-OH; thioether N-14)
2 | 0.0454 | CCCCCCN1CC(=O)N[C@@H](Cc2ccc(O)cc2)C(=O)N[C@@H](CCCC)C(=O)N[C@@H](CC(N)=O)C(=O)N[C@@H](CCCNC(=N)N)C(=O)N(C)[C@@H](CCC(=O)O)C(=O)N[C@@H](CCCCC)C(=O)N2CCC[C@H]2C(=O)N[C@@H](C(C)(C)C)C(=O)N[C@@H](CO)C(=O)N[C@H](C(=O)NCCOCCOCC(=O)N[C@@H](CCC(=O)NCCOCCOCC(=O)NCCCCCCCCCCC(=O)O)C(=O)O)CSCC(=O)N[C@@H](Cc2ccccc2)C(=O)N[C@@H](Cc2c[nH]c3ccccc23)C(=O)N[C@@H](CC(=O)O)C1=O [compound 2248] ({CH2CO}-FWD[NHexGly]Y[Nle]NR[NMeE][Ahp(2)]P[Tle]SC[AEEA][γGlu][AEEA][Aun]-OH; thioether N-14)
3 | 0.0504 | CCCCCCN1CC(=O)N[C@@H](Cc2ccc(O)cc2)C(=O)N[C@@H](CCCC)C(=O)N[C@@H](CC(N)=O)C(=O)N[C@@H](CCCNC(=N)N)C(=O)N(C)[C@@H](CCCC)C(=O)N[C@@H](CCCCC)C(=O)N2CCC[C@H]2C(=O)N[C@@H](C(C)(C)O)C(=O)N[C@@H](CO)C(=O)N[C@H](C(=O)NCCOCCOCC(=O)N[C@@H](CCC(=O)NCCOCCOCC(=O)NCCCCCCCCCCC(=O)O)C(=O)O)CSCC(=O)N[C@@H](Cc2ccccc2)C(=O)N[C@@H](Cc2c[nH]c3ccccc23)C(=O)N[C@@H](CC(=O)O)C1=O [compound 2250] ({CH2CO}-FWD[NHexGly]Y[Nle]NR[NMeNle][Ahp(2)]P[Val(3-OH)]SC[AEEA][γGlu][AEEA][Aun]-OH; thioether N-14)
4 | 0.0286 | CCCCCCN1CC(=O)N[C@@H](Cc2ccc(O)cc2)C(=O)N[C@@H](CCCC)C(=O)N[C@@H](CC(N)=O)C(=O)N[C@@H](CCCNC(=N)N)C(=O)N(C)[C@@H](CCCC)C(=O)N[C@@H](CCCCC)C(=O)N2CCC[C@H]2C(=O)N[C@@H](C(C)(C)C)C(=O)N[C@@H](CO)C(=O)N[C@H](C(=O)NCCOCCOCC(=O)N[C@@H](CCC(=O)NCCOCCOCC(=O)NCCCCCCCCCCC(=O)O)C(=O)O)CSCC(=O)N[C@@H](Cc2ccc(C(=O)O)cc2)C(=O)N[C@@H](Cc2ccc(O)cc2)C(=O)N[C@@H](CC(=O)O)C1=O [compound 2251] ({CH2CO}-[Phe(4-COOH)]YD[NHexGly]Y[Nle]NR[NMeNle][Ahp(2)]P[Tle]SC[AEEA][γGlu][AEEA][Aun]-OH; thioether N-14)
5 | 0.012 | CCCCCCN1CC(=O)N[C@@H](Cc2ccc(O)cc2)C(=O)N[C@@H](CCCC)C(=O)N[C@@H](CC(N)=O)C(=O)N[C@@H](CCCNC(=N)N)C(=O)N(C)[C@@H](CCCC)C(=O)N[C@@H](CCCCC)C(=O)N2CCC[C@H]2C(=O)N[C@@H](C(C)(C)C)C(=O)N[C@@H](CO)C(=O)N[C@H](C(=O)NCCOCCOCC(=O)N[C@@H](CCC(=O)NCCOCCOCC(=O)NCCCCCCCCCCC(=O)O)C(=O)O)CSCC(=O)N[C@@H](Cc2ccc(O)cc2)C(=O)N[C@@H](Cc2ccc(O)cc2)C(=O)N[C@@H](CC(=O)O)C1=O [compound 2252] ({CH2CO}-YYD[NHexGly]Y[Nle]NR[NMeNle][Ahp(2)]P[Tle]SC[AEEA][γGlu][AEEA][Aun]-OH; thioether N-14)
6 | 0.0207 | CCCCCCN1CC(=O)N[C@@H](Cc2ccc(O)cc2)C(=O)N[C@@H](CCCC)C(=O)N[C@@H](CC(N)=O)C(=O)N[C@@H](CCCNC(=N)N)C(=O)N(C)[C@@H](CCCC)C(=O)N[C@@H](CCCCC)C(=O)N2CCC[C@H]2C(=O)N[C@@H](C(C)(C)C)C(=O)N[C@@H](CO)C(=O)N[C@H](C(=O)NCCOCCOCC(=O)N[C@@H](CCC(=O)NCCOCCOCC(=O)NCCCCCCCCCCC(=O)O)C(=O)O)CSCC(=O)N[C@@H](Cc2ccncc2)C(=O)N[C@@H](Cc2c[nH]c3ccccc23)C(=O)N[C@@H](CC(=O)O)C1=O [compound 2253] ({CH2CO}-[4Pal]WD[NHexGly]Y[Nle]NR[NMeNle][Ahp(2)]P[Tle]SC[AEEA][γGlu][AEEA][Aun]-OH; thioether N-14)
7 | 0.0279 | CCCCCCN1CC(=O)N[C@@H](Cc2ccc(O)cc2)C(=O)N[C@@H](CCCC)C(=O)N[C@@H](CC(N)=O)C(=O)N[C@@H](CCCNC(=N)N)C(=O)N[C@@H](CCCCN)C(=O)N[C@@H](CCCCC)C(=O)N2CCC[C@H]2C(=O)N[C@@H](C(C)(C)C)C(=O)N[C@@H](CC(=O)O)C(=O)N[C@H](C(=O)NCCOCCOCC(=O)N[C@@H](CCC(=O)NCCOCCOCC(=O)NCCCCCCCCCCC(=O)O)C(=O)O)CSCC(=O)N[C@@H](Cc2ccccc2)C(=O)N[C@@H](Cc2c[nH]c3ccccc23)C(=O)N[C@@H](CC(=O)O)C1=O [compound 2254] ({CH2CO}-FWD[NHexGly]Y[Nle]NRK[Ahp(2)]P[Tle]DC[AEEA][γGlu][AEEA][Aun]-OH; thioether N-14)
8 | 0.0268 | CCCCCCN1CC(=O)N[C@@H](Cc2ccc(O)cc2)C(=O)N[C@@H](CCC)C(=O)N[C@@H](CC(N)=O)C(=O)N[C@@H](CCCNC(=N)N)C(=O)N(C)[C@@H](CCCC)C(=O)N[C@@H](CCCCC)C(=O)N2CCC[C@H]2C(=O)N[C@@H](C(C)(C)C)C(=O)N[C@@H](CC(=O)O)C(=O)N[C@H](C(=O)NCCOCCOCC(=O)N[C@@H](CCC(=O)NCCOCCOCC(=O)NCCCCCCCCCCC(=O)O)C(=O)O)CSCC(=O)N[C@@H](Cc2ccccc2)C(=O)N[C@@H](Cc2c[nH]c3ccccc23)C(=O)N[C@@H](CC(=O)O)C1=O [compound 2255] ({CH2CO}-FWD[NHexGly]Y[Nva]NR[NMeNle][Ahp(2)]P[Tle]DC[AEEA][γGlu][AEEA][Aun]-OH; thioether N-14)
9 | 0.0138 | CCCCCCN1CC(=O)N[C@@H](Cc2ccc(O)cc2)C(=O)N[C@@H](CCCC)C(=O)N[C@@H](CC(N)=O)C(=O)N[C@@H](CCCNC(=N)N)C(=O)N(C)[C@@H](CCCC)C(=O)N[C@@H](CCCCC)C(=O)N2CCC[C@H]2C(=O)N[C@@H](C(C)(C)C)C(=O)N[C@@H](CO)C(=O)N[C@H](C(=O)NCCOCCOCC(=O)N[C@@H](CCC(=O)NCCOCCOCC(=O)NCCCCCCCCCCC(=O)O)C(=O)O)CSCC(=O)N[C@@H](Cc2ccc(C(=O)O)cc2)C(=O)N[C@@H](Cc2c[nH]c3ccccc23)C(=O)N[C@@H](CC(=O)O)C1=O [compound 2256] ({CH2CO}-[Phe(4-COOH)]WD[NHexGly]Y[Nle]NR[NMeNle][Ahp(2)]P[Tle]SC[AEEA][γGlu][AEEA][Aun]-OH; thioether N-14)
10 | 0.0404 | CCCCCCN1CC(=O)N[C@@H](Cc2ccc(O)cc2)C(=O)N[C@@H](CCCC)C(=O)N[C@@H](CC(N)=O)C(=O)N[C@@H](CCCNC(=N)N)C(=O)N(C)[C@@H](CCCC)C(=O)N[C@@H](CCCCC)C(=O)N2CCC[C@H]2C(=O)N[C@@H](C(C)(C)C)C(=O)N[C@@H](CO)C(=O)N[C@H](C(=O)NCCOCCOCC(=O)N[C@@H](CCC(=O)NCCOCCOCC(=O)NCCCCCCCCCCC(=O)O)C(=O)O)CSCC(=O)N[C@@H](Cc2ccncc2)C(=O)N[C@@H](Cc2ccc(O)cc2)C(=O)N[C@@H](CC(=O)O)C1=O [compound 2257] ({CH2CO}-[4Pal]YD[NHexGly]Y[Nle]NR[NMeNle][Ahp(2)]P[Tle]SC[AEEA][γGlu][AEEA][Aun]-OH; thioether N-14)
11 | 0.0369 | CCCCCCN1CC(=O)N[C@@H](Cc2ccc(O)cc2)C(=O)N[C@@H](CCC)C(=O)N[C@@H](CC(N)=O)C(=O)N[C@@H](CCCNC(=N)N)C(=O)N(C)[C@@H](CCCC)C(=O)N[C@@H](CCCCC)C(=O)N2CCC[C@H]2C(=O)N[C@@H](C(C)(C)C)C(=O)N[C@@H](CO)C(=O)N[C@H](C(=O)NCCOCCOCC(=O)N[C@@H](CCC(=O)NCCOCCOCC(=O)NCCCCCCCCCCC(=O)O)C(=O)O)CSCC(=O)N[C@@H](Cc2ccccc2)C(=O)N[C@@H](Cc2c[nH]c3ccccc23)C(=O)N[C@@H](CC(=O)O)C1=O [compound 2258] ({CH2CO}-FWD[NHexGly]Y[Nva]NR[NMeNle][Ahp(2)]P[Tle]SC[AEEA][γGlu][AEEA][Aun]-OH; thioether N-14)
12 | 0.0381 | CCCCCCN1CC(=O)N[C@@H](Cc2ccc(O)cc2)C(=O)N[C@@H](CCCC)C(=O)N[C@@H](CC(N)=O)C(=O)N[C@@H](CCCNC(=N)N)C(=O)N(C)[C@@H](CCCC)C(=O)N[C@@H](CCCCC)C(=O)N2CCC[C@H]2C(=O)N[C@@H](C(C)(C)C)C(=O)N[C@@H](CO)C(=O)N[C@H](C(=O)NCCOCCOCC(=O)N[C@@H](CCC(=O)NCCOCCOCC(=O)NCCCCCCCCCCC(=O)O)C(=O)O)CSCC(=O)N[C@@H](Cc2ccc(C(N)=O)cc2)C(=O)N[C@@H](Cc2ccc(O)cc2)C(=O)N[C@@H](CC(=O)O)C1=O [compound 2259] ({CH2CO}-[Phe(4-CONH2)]YD[NHexGly]Y[Nle]NR[NMeNle][Ahp(2)]P[Tle]SC[AEEA][γGlu][AEEA][Aun]-OH; thioether N-14)
13 | 0.016 | CCCCCCN1CC(=O)N[C@@H](Cc2ccc(O)cc2)C(=O)N[C@@H](CC(C)C)C(=O)N[C@@H](CC(N)=O)C(=O)N[C@@H](CCCNC(=N)N)C(=O)N(C)[C@@H](CCCC)C(=O)N[C@@H](CCCCC)C(=O)N2CCC[C@H]2C(=O)N[C@@H](C(C)(C)C)C(=O)N[C@@H](CO)C(=O)N[C@H](C(=O)NCCOCCOCC(=O)N[C@@H](CCC(=O)NCCOCCOCC(=O)NCCCCCCCCCCC(=O)O)C(=O)O)CSCC(=O)N[C@@H](Cc2ccccc2)C(=O)N[C@@H](Cc2ccc(O)cc2)C(=O)N[C@@H](CC(=O)O)C1=O [compound 2260] ({CH2CO}-FYD[NHexGly]YLNR[NMeNle][Ahp(2)]P[Tle]SC[AEEA][γGlu][AEEA][Aun]-OH; thioether N-14)
